Values of other authors in patent publication US7276228B2, “Methods for treating hematological disorders through inhibition of DNA methylation and histone deacetylase” (SuperGen, Inc., priority 2001, dated 2007).

What was measured:
[1] = system: DNA methyltransferase; conditions: decitabine replacing 5-methylcytosine at a site of methylation in DNA; Juttermann et al. (1994)
[2] = system: mammalian HDAC; conditions: Yoshida et al. (1990)
[3] = system: HDAC; conditions: for concentration at which HDAC activity is inhibited: literature statements

Question: With Nc1ncn([C@H]2C[C@H](O)[C@@H](CO)O2)c(=O)n1 [decitabine, 5-aza-2′-deoxycytidine] as the compound, how does the “inactivation of DNA methyltransferase” value [1] read?
Answer: irreversible inactivation

Question: Which “inhibition of mammalian HDAC” value [2] does the source give for CC(/C=C/C(=O)NO)=C\[C@@H](C)C(=O)c1ccc(N(C)C)cc1 [TSA, trichostatin A] here?
Answer: potent inhibitor

Question: Which “concentration at which HDAC activity is inhibited” value [3] does the source give for depudecin here?
Answer: micromolar concentrations

Question: For C/C=C1\NC(=O)[C@H]2CSSCC/C=C/[C@H](CC(=O)N[C@H](C(C)C)C(=O)N2)OC(=O)[C@H](C(C)C)NC1=O [FR901228], which “concentration at which HDAC activity is inhibited” value [3] is on record?
Answer: micromolar concentrations

Question: Which “concentration at which HDAC is inhibited” value ([3]; in vitro or in vivo, Glick et al. (1999)) does the source give for O=C(/C=C/c1cccc(C(=O)NO)c1)NO [CBHA, m-carboxy-cinnamic acid bishydroxamic acid] here?
Answer: micromolar concentration or lower
